Experiments:
[1] = system: cAMP-specific phosphodiesterase (PDE IV); assay: Inhibition of the PDE IV enzyme derived from a dog trachea; type: biochemical; settings: test compound 10^−6 M; PDE IV from dog tracheal smooth muscle; substrate cAMP 1 μM
Method: cAMP-specific phosphodiesterase (PDE IV) was purified from a dog tracheal smooth muscle according to the method of Torphy et al. [Molecular Pharmacol., 37, 206-214 (1990)]. The PDE activity was measured by the following two steps according to the method of Kincaid and Manganiello et al. [Method in Enzymology (J. D. Corbin and R. A. Jonson, Eds.), 199, 457-470 (1988)]. Using [^3]cAMP (at a final concentration of 1 μM) as a substrate, the reaction was carried out in a standard mixture containing N,N-bis(2-hydroxyethyl)-2-aminoethanesulfonic acid (50 mM, pH=7.2), MgCl2 (1 mM), and soybean trypsin inhibitor (0.1 mg/ml). The reaction was initiated by adding the enzyme, followed by incubation at 30° C. for 10 to 30 minutes. After stopping the reaction with hydrochloric acid, the generated […] was completely converted to adenosine by 5′-nucleotidase.
The resultant was subjected to chromatography on DEAE-Sephadex A-25, and radio activity of the eluted [^3H] adenosine was counted using a scintillation counter. Each of the test drugs was dissolved in DMSO (final concentration 1.7%) and then added to the mixture.

Compound	melting point [°C]	Enzyme Inhibitory Activity (%, 10^−6 M) [1] [%]
COc1ccc(C(=O)Nc2c(Cl)cncc2Cl)c2c1OCC2C (racemic) [Compound 2, (±)-4-[(3,5-Dichloro-4-pyridyl)aminocarbonyl]-7-methoxy-3-methyl-2,3-dihydrobenzofuran]	198 to 200	77
CCC1COc2c(OC)ccc(C(=O)Nc3c(Cl)cncc3Cl)c21 (racemic) [Compound 3, (±)-4-[(3,5-Dichloro-4-pyridyl)aminocarbonyl]-3-ethyl-7-methoxy-2,3-dihydrobenzofuran]	202 to 204	75
COc1ccc(C(=O)Nc2c(Cl)cncc2Cl)c2c1OCC2C(C)C (racemic) [Compound 4, (±)-4-[(3,5-Dichloro-4-pyridyl)aminocarbonyl]-7-methoxy-3-(2-propyl)-2,3-dihydrobenzofuran]	239 to 241	53
CCOC(=O)CC1COc2c(OC)ccc(C(=O)Nc3c(Cl)cncc3Cl)c21 (racemic) [Compound 5, (±)-4-[(3,5-Dichloro-4-pyridyl)aminocarbonyl]-3-ethoxycarbonylmethyl-7-methoxy-2,3-dihydrobenzofuran]	186 to 188	85
COc1ccc(C(=O)Cc2ccncc2)c2cc(-c3ccccn3)oc12.Cl.Cl [Compound 117, 7-Methoxy-4-[1-oxo-2-(4-pyridyl)ethyl]-2-(2-pyridyl)-benzofuran.2 hydrochloride]		87
COc1ccc(C(=O)Cc2ccncc2)c2c(-c3ccccc3)coc12.Cl [Compound 118, 7-Methoxy-4-[1-oxo-2-(4-pyridyl)ethyl]-3-phenyl-benzofuran.hydrochloride]		80
COc1ccc(C(=O)Nc2ccncc2)c2c1OC1(CCCC1)CC2.CS(=O)(=O)O [Compound 124, 8-Methoxy-5-(4-pyridylaminocarbonyl)-spiro[3,4-dihydrobenzopyran-2,1′-cyclopentane].methanesulfonate]		57
COc1ccc(C=Cc2ccncc2)c2c1OC1(CCCC1)CC2.Cl [Compound 125, 8-Methoxy-5-[2-(4-pyridyl)ethenyl]-spiro[3,4-dihydrobenzopyran-2,1′-cyclopentane].hydrochloride]		71
COc1ccc(C=Cc2ccncc2)c2c1OC1(CCCCC1)CC2.Cl [Compound 126, 8-Methoxy-5-[2-(4-pyridyl)ethenyl]-spiro[3,4-dihydrobenzopyran-2,1′-cyclohexane].hydrochloride]		58
COc1ccc(C(=O)Cc2ccncc2)c2c1OC1(CCCC1)CC2.Cl [Compound 127, 8-Methoxy-5-[1-oxo-2-(4-pyridyl)ethyl]-spiro[3,4-dihydrobenzopyran-2,1′-cyclopentane].hydrochloride]		70
COc1ccc(C(=O)Cc2ccncc2)c2c1OC1(CCCCC1)CC2.Cl [Compound 128, 8-Methoxy-5-[1-oxo-2-(4-pyridyl)ethyl]-spiro[3,4-dihydrobenzopyran-2,1′-cyclohexane].hydrochloride]		62
COc1ccc(CCc2ccncc2)c2c1OC1(CCCC1)O2.Cl [Compound 136, 4-Methoxy-7-[2-(4-pyridyl)ethyl]-spiro[1,3-benzodioxole-2,1′-cyclopentane].hydrochloride]		75
COc1ccc(C(Cc2ccncc2)c2ccccc2)c2c1OC1(CCCC1)O2.Cl (stereo not drawn) [Compound 137, 4-Methoxy-7-[1-phenyl-2-(4-pyridyl)ethyl]-spiro[1,3-benzodioxole-2,1′-cyclopentane].hydrochloride]		61
COc1ccc(C(=Cc2ccncc2)c2ccccc2)c2c1OC1(CCCC1)O2 [Compound 139, 4-Methoxy-7-[1-phenyl-2-(4-pyridyl)ethenyl]-spiro[1,3-benzodioxole-2,1′-cyclopentane]]		54

Reference: patent US6716987B1, “Derivatives of benzofuran or benzodioxazole compounds” (Kyowa Hakko Kogyo Co., Ltd., priority 1995, dated 2004)
